Measurements taken from patent US20250243245A1 (priority 2022, published 2025).
Where a SMILES comes first, the peptide text is derived from it.

System: E. coli strain BL21
Conditions: BL21, 24 h

Row | SMILES | MIC
1 | CC(C)C[C@H](NC(=O)[C@H](CCC(N)=O)NC(=O)[C@H](CCC(=O)O)NC(=O)[C@H](CO)NC(=O)[C@H](CC(C)C)NC(=O)[C@H](CCCNC(=N)N)NC(=O)[C@@H]1CCCN1C(=O)[C@@H](N)CCCCN)C(=O)N[C@@H](CCC(N)=O)C(=O)N[C@@H](CCC(=O)O)C(=O)N[C@@H](CC(C)C)C(=O)N[C@H](C(=O)N[C@@H](CCCNC(=N)N)C(=O)N[C@@H](CCCNC(=N)N)C(=O)N[C@@H](CC(C)C)C(=O)N[C@@H](CC(C)C)C(=O)N[C@@H](CC(=O)O)C(=O)N[C@@H](CO)C(=O)N1CCC[C@H]1C(=O)N[C@@H](CC(C)C)C(=O)N[C@@H](CCC(=O)O)C(=O)N[C@@H](CCCNC(=N)N)C(=O)N[C@@H](CCCNC(=N)N)C(=O)N[C@@H](Cc1c[nH]c2ccccc12)C(=O)N[C@@H](Cc1c[nH]c2ccccc12)C(=O)N[C@@H](CCC(=O)O)C(=O)N[C@@H](Cc1c[nH]c2ccccc12)C(=O)N[C@@H](Cc1c[nH]c2ccccc12)C(=O)N[C@@H](CCCNC(=N)N)C(=O)N[C@@H](CCCNC(=N)N)C(=O)O)[C@@H](C)O [UGK-33] (H-KPRLSEQLQELTRRLLDSPLERRWWEWWRR-OH; N-terminus and C-terminus assumed) | >20 mM
2 | CC[C@H](C)[C@H](NC(=O)[C@H](CCCNC(=N)N)NC(=O)[C@H](CCCNC(=N)N)NC(=O)[C@H](CCC(N)=O)NC(=O)[C@H](Cc1c[nH]c2ccccc12)NC(=O)[C@H](Cc1ccccc1)NC(=O)CNC(=O)[C@@H]1CCCN1C(=O)[C@H](CO)NC(=O)CNC(=O)[C@H](CCC(=O)O)NC(=O)[C@H](CC(C)C)NC(=O)[C@H](CO)NC(=O)[C@H](CCCCN)NC(=O)[C@H](CC(C)C)NC(=O)[C@@H](NC(=O)[C@H](CCC(=O)O)NC(=O)[C@H](CC(C)C)NC(=O)[C@H](CC(C)C)NC(=O)[C@H](CCCCN)NC(=O)[C@H](CCC(=O)O)NC(=O)[C@@H]1CCCN1C(=O)[C@H](CC(C)C)NC(=O)[C@H](CCCCN)NC(=O)[C@@H](N)CCCCN)[C@@H](C)CC)C(=O)N[C@@H](CCCNC(=N)N)C(=O)N[C@@H](CCCNC(=N)N)C(=O)N[C@@H](Cc1c[nH]c2ccccc12)C(=O)N[C@@H](CCCNC(=N)N)C(=O)N[C@@H](CCCNC(=N)N)C(=O)O [UGK-25] (H-KKLPEKLLEILKSLEGSPGFWQRRIRRWRR-OH; N-terminus and C-terminus assumed) | 2.5 to 5 mM
3 | CSCC[C@H](NC(=O)[C@H](Cc1c[nH]c2ccccc12)NC(=O)[C@H](CCC(N)=O)NC(=O)[C@H](Cc1c[nH]c2ccccc12)NC(=O)[C@H](Cc1ccccc1)NC(=O)[C@H](CCCNC(=N)N)NC(=O)[C@H](CCCNC(=N)N)NC(=O)[C@H](CCC(=O)O)NC(=O)[C@H](CC(C)C)NC(=O)[C@@H]1CCCN1C(=O)[C@H](CO)NC(=O)[C@H](CC(=O)O)NC(=O)[C@H](CC(C)C)NC(=O)[C@H](CC(C)C)NC(=O)[C@H](CCCNC(=N)N)NC(=O)[C@H](CCCNC(=N)N)NC(=O)[C@@H](NC(=O)[C@H](CC(C)C)NC(=O)[C@H](CCC(=O)O)NC(=O)[C@H](CCC(N)=O)NC(=O)[C@H](CC(C)C)NC(=O)[C@H](CCC(N)=O)NC(=O)[C@H](CCC(=O)O)NC(=O)[C@H](CO)NC(=O)CNC(=O)[C@H](CCCNC(=N)N)NC(=O)[C@@H]1CCCN1C(=O)[C@@H](N)CCCCN)[C@@H](C)O)C(=O)N[C@@H](CCCNC(=N)N)C(=O)N[C@@H](CCCNC(=N)N)C(=O)O [UGK-37, KPRGSEQLQELTRRLLDSPLERRFWOWMRR] (H-KPRGSEQLQELTRRLLDSPLERRFWQWMRR-OH; N-terminus and C-terminus assumed) | >20 mM
4 | CC[C@H](C)[C@H](NC(=O)[C@H](CCCCN)NC(=O)[C@H](CC(C)C)NC(=O)[C@@H](NC(=O)[C@H](CCCCN)NC(=O)[C@H](CCCCN)NC(=O)[C@@H](NC(=O)[C@H](CC(C)C)NC(=O)[C@H](CCCCN)NC(=O)[C@H](CCCCN)NC(=O)CNC(=O)[C@@H]1CCCN1C(=O)[C@H](CO)NC(=O)CNC(=O)[C@H](Cc1ccc(O)cc1)NC(=O)CNC(=O)[C@H](CO)NC(=O)CNC(=O)[C@H](CCCNC(=N)N)NC(=O)[C@H](CCCNC(=N)N)NC(=O)[C@H](Cc1c[nH]c2ccccc12)NC(=O)[C@H](CCCNC(=N)N)NC(=O)[C@H](CCCNC(=N)N)NC(=O)[C@@H](NC(=O)[C@H](CCCNC(=N)N)NC(=O)[C@H](CCCNC(=N)N)NC(=O)[C@H](CCC(N)=O)NC(=O)[C@H](Cc1c[nH]c2ccccc12)NC(=O)[C@@H](N)Cc1ccccc1)[C@@H](C)CC)[C@@H](C)CC)[C@@H](C)CC)C(=O)N[C@@H](CC(C)C)C(=O)O [Peptide 30P-2] (H-FWQRRIRRWRRGSGYGSPGKKLIKKILKIL-OH; N-terminus and C-terminus assumed) | 1.25 to 2.5 mM
5 | CC[C@H](C)[C@H](NC(=O)[C@H](CCCNC(=N)N)NC(=O)[C@H](CCCNC(=N)N)NC(=O)[C@H](CCC(N)=O)NC(=O)[C@H](Cc1c[nH]c2ccccc12)NC(=O)[C@H](Cc1ccccc1)NC(=O)CNC(=O)[C@@H]1CCCN1C(=O)[C@H](CO)NC(=O)CNC(=O)[C@H](Cc1ccc(O)cc1)NC(=O)CNC(=O)[C@H](CO)NC(=O)CNC(=O)[C@H](CCCNC(=N)N)NC(=O)[C@H](Cc1c[nH]c2ccccc12)NC(=O)[C@H](Cc1c[nH]c2ccccc12)NC(=O)[C@H](CCCNC(=N)N)NC(=O)[C@H](Cc1c[nH]c2ccccc12)NC(=O)[C@H](Cc1c[nH]c2ccccc12)NC(=O)[C@H](CCCNC(=N)N)NC(=O)[C@@H](N)CCCNC(=N)N)C(=O)N[C@@H](CCCNC(=N)N)C(=O)N[C@@H](CCCNC(=N)N)C(=O)N[C@@H](Cc1c[nH]c2ccccc12)C(=O)N[C@@H](CCCNC(=N)N)C(=O)N[C@@H](CCCNC(=N)N)C(=O)O [Peptide 27P-1] (H-RRWWRWWRGSGYGSPGFWQRRIRRWRR-OH; N-terminus and C-terminus assumed) | >20 mM
6 | CC[C@H](C)[C@H](N)C(=O)N[C@@H](CCC(=O)O)C(=O)N[C@@H](CCCNC(=N)N)C(=O)N[C@@H](CO)C(=O)N[C@@H](CCCNC(=N)N)C(=O)N[C@@H](CC(N)=O)C(=O)N[C@@H](CC(C)C)C(=O)N[C@@H](CC(=O)O)C(=O)N[C@@H](Cc1c[nH]c2ccccc12)C(=O)N[C@@H](Cc1ccc(O)cc1)C(=O)N[C@@H](CCCCN)C(=O)NCC(=O)N1CCC[C@H]1C(=O)N[C@H](C(=O)N[C@@H](CC(C)C)C(=O)N[C@@H](CC(C)C)C(=O)N[C@@H](CC(=O)O)C(=O)N[C@@H](C)C(=O)N[C@@H](CC(C)C)C(=O)N[C@@H](CCCCN)C(=O)N[C@@H](CC(N)=O)C(=O)N[C@@H](CC(C)C)C(=O)N[C@@H](CC(N)=O)C(=O)N[C@@H](CCC(=O)O)C(=O)NCC(=O)N[C@@H](CCCCN)C(=O)N[C@@H](CCCNC(=N)N)C(=O)O)[C@@H](C)O [Peptide I27AB] (H-IERSRNLDWYKGPTLLDALKNLNEGKR-OH; N-terminus and C-terminus assumed) | >20 mM
7 | CC[C@H](C)[C@H](NC(=O)[C@H](CCCNC(=N)N)NC(=O)[C@H](CCCNC(=N)N)NC(=O)[C@H](CCC(N)=O)NC(=O)[C@H](Cc1c[nH]c2ccccc12)NC(=O)[C@H](Cc1ccccc1)NC(=O)CNC(=O)[C@@H]1CCCN1C(=O)[C@H](CO)NC(=O)CNC(=O)[C@H](CCCCN)NC(=O)[C@H](CC(C)C)NC(=O)[C@H](CO)NC(=O)[C@H](CCCCN)NC(=O)[C@H](CC(C)C)NC(=O)[C@@H](NC(=O)[C@H](CCC(=O)O)NC(=O)[C@H](CC(C)C)NC(=O)[C@H](CC(C)C)NC(=O)[C@H](CCCCN)NC(=O)[C@H](CCC(N)=O)NC(=O)[C@@H]1CCCN1C(=O)[C@H](CC(C)C)NC(=O)[C@H](CCCCN)NC(=O)[C@@H](N)CCCCN)[C@@H](C)CC)C(=O)N[C@@H](CCCNC(=N)N)C(=O)N[C@@H](CCCNC(=N)N)C(=O)N[C@@H](Cc1c[nH]c2ccccc12)C(=O)N[C@@H](CCCNC(=N)N)C(=O)N[C@@H](CCCNC(=N)N)C(=O)O [UGK-21] | 1.25 to 2.5 mM
8 | CC(C)C[C@H](NC(=O)[C@H](Cc1c[nH]cn1)NC(=O)[C@H](C)NC(=O)[C@H](CCCCN)NC(=O)[C@H](CO)NC(=O)CNC(=O)[C@H](CCC(=O)O)NC(=O)[C@H](CC(C)C)NC(=O)[C@H](CO)NC(=O)[C@H](CCCCN)NC(=O)[C@H](CC(C)C)NC(=O)[C@H](CCCCN)NC(=O)[C@H](CCC(N)=O)NC(=O)[C@H](CC(C)C)NC(=O)[C@H](CC(C)C)NC(=O)[C@H](CCC(=O)O)NC(=O)[C@H](CCC(=O)O)NC(=O)[C@@H]1CCCN1C(=O)[C@H](CCCNC(=N)N)NC(=O)[C@@H](N)CCCCN)C(=O)N[C@@H](CCC(N)=O)C(=O)N[C@@H](Cc1c[nH]cn1)C(=O)N[C@@H](Cc1c[nH]cn1)C(=O)N[C@@H](CC(=O)O)C(=O)N[C@@H](Cc1c[nH]c2ccccc12)C(=O)N[C@H](C(=O)N[C@@H](CO)C(=O)N[C@@H](CCCCN)C(=O)O)[C@@H](C)O [UGK-41] (H-KRPEELLQKLKSLEGSKAHLQHHDWTSK-OH; N-terminus and C-terminus assumed) | >20 mM
9 | CC[C@H](C)[C@H](N)C(=O)N[C@@H](CCC(=O)O)C(=O)N[C@@H](CCCNC(=N)N)C(=O)N[C@@H](CO)C(=O)N[C@@H](CCCNC(=N)N)C(=O)N[C@@H](CC(N)=O)C(=O)N[C@@H](CC(C)C)C(=O)N[C@@H](CC(=O)O)C(=O)N[C@@H](Cc1c[nH]c2ccccc12)C(=O)N[C@@H](Cc1ccc(O)cc1)C(=O)N[C@@H](CCCCN)C(=O)NCC(=O)N1CCC[C@H]1C(=O)N[C@H](C(=O)N[C@@H](CC(C)C)C(=O)N[C@@H](CC(C)C)C(=O)N[C@@H](CC(=O)O)C(=O)N[C@@H](C)C(=O)N[C@@H](CC(C)C)C(=O)N[C@@H](CCCCN)C(=O)N[C@@H](CC(N)=O)C(=O)N[C@@H](CC(C)C)C(=O)N[C@@H](CC(N)=O)C(=O)N[C@@H](CCC(=O)O)C(=O)NCC(=O)N[C@@H](CCCCN)C(=O)N[C@@H](CCCNC(=N)N)C(=O)N1CCC[C@H]1C(=O)N[C@@H](CO)C(=O)N[C@@H](CC(=O)O)C(=O)N[C@@H](CCCCN)C(=O)O)[C@@H](C)O [Peptide I31LB] (H-IERSRNLDWYKGPTLLDALKNLNEGKRPSDK-OH; N-terminus and C-terminus assumed) | >20 mM
